Measurements: patent US7759373B2, “Large conductance calcium-activated K channel opener” (Mitsubishi Tanabe Pharma Corporation, priority 2001, dated 2010)
pEC50: −log10 of the molar value.

test system: isolated rabbit urinary bladder; assay: Relaxation effect on potassium-induced contraction of isolated rabbit urinary bladder; format: cell-based; conditions: 50% relaxation concentration; high-K+ (30 mM) pre-contracted rabbit bladder strips; relaxation as percentage of the maximum produced by 0.1 mM papaverine; read-out: EC50 value range
Description: Relaxation effect on potassium-induced contraction of isolated rabbit urinary bladder
Urinary bladder was isolated from Male NZW rabbits (2.0-3.5 kg) and immersed in ice-cold Krebs-bicarbonate solution (in mM: 118 NaCl, 4.7 KCl, 1.2, 2.5 CaCl2, MgSO4, 1.2 KH2PO4, 11 glucose, 25 NaHCO3). The urinary bladder was cut into longitudinal strips (5 mm length, 3-4 mm width) after mucosal layer was removed. Preparations were mounted in organ baths containing 10 ml of Krebs solution maintained at 37° C. and gassed with 95% O2/5% CO2. Accordingly, preparations were stretched with an initial tension of 2.0±1.0 g, and changes in isometric tension were measured by force-displacement transducer. The preparations were pre-contracted by changing organ-bath solution into high-K^+ (30 mM) Krebs solution (in mM: 92.7 NaCl, 30 KCl, 1.2, 2.5 CaCl2, MgSO4, 1.2 KH2PO4, 11 glucose, 25 NaHCO3).
After stable tension was obtained, compounds were added into organ baths cumulatively (10^−8M-10^−4M). The effects of compounds were expressed as a percentage of the maximum relaxation produced by 0.1 mM papaverine. 50% relaxation concentration (EC50) was calculated and EC50 value range (μM) of the compounds of the present invention was shown in the following Table 64 with a rank of A, B or C. These ranges are as mentioned below. 3≧C≧1≧B≧0.5≧A

Compound | pEC50
5-(5-chlorothiophen-2-yl)-2-(4-fluorophenyl)oxazole-4-yl propionic acid sodium salt [Preparation Example 339] | 5.52 to 6.00

same assay, conditions: Oryctolagus cuniculus; 50% relaxation concentration; high-K+ (30 mM) pre-contracted rabbit bladder strips; relaxation as percentage of the maximum produced by 0.1 mM papaverine; read-out: EC50 value range

pEC50 | Compound
5.52 to 6.00 | O=C([O-])Cc1nc(-c2ccc(F)cc2)oc1-c1ccc(Cl)s1.[Na+] [Preparation Example 152, 5-(5-chloro-thiophen-2-yl)-2-(4-fluorophenyl)oxazol-4-yl acetic acid sodium salt]
≥ 6.30 | CSc1ccc(-c2nc(CC(=O)[O-])c(-c3cccs3)o2)cn1.[Na+] [Preparation Example 366, 2-(6-methylthiopyridin-3-yl)-5-(2-thienyl)oxazol-4-yl acetic acid sodium salt]
5.52 to 6.00 | CCCc1nc(-c2ccc(F)cc2)[nH]c1-c1ccc(N(C)C)cc1 [Preparation example 90]
≥ 6.30 | COc1ccc(-c2nc(-c3ccc(Cl)cc3)c(CC(=O)O)s2)cc1 [Preparation Example 575]
5.52 to 6.00 | CN(C)c1ccc(-c2nc(-c3ccc(Cl)s3)c(CC(=O)O)o2)cn1 [Preparation Example 504]
≥ 6.30 | O=C(O)Cc1nc(-c2cc3c(s2)CCC3)oc1-c1ccc(Cl)s1 [Preparation Example 479]
≥ 6.30 | O=C(O)Cc1nc(-c2ccccc2)oc1-c1ccc(Cl)s1 [Preparation Example 279]
5.52 to 6.00 | CCc1nc(-c2ccc(C)nc2)[nH]c1-c1ccsc1 [Preparation example 81]
6.00 to 6.30 | CCc1nc(-c2ccc(F)cc2)[nH]c1-c1cnccn1 [Preparation example 49]
5.52 to 6.00 | CCCc1nc(-c2cccc3ccccc23)[nH]c1-c1ccccc1 [Preparation example 36]
5.52 to 6.00 | CCc1nc(-c2cccc(C#N)c2)[nH]c1-c1cccnc1 [Preparation example 57]
≥ 6.30 | CCc1nc(-c2ccc(F)cc2)[nH]c1-c1ccccc1OC [Preparation example 84]
≥ 6.30 | COc1ccc(-c2nc(-c3cccs3)c(CC(=O)O)o2)cc1 [Preparation Example 507]
≥ 6.30 | O=C(O)Cc1[nH]c(-c2cc3ccccc3s2)nc1-c1ccc(Cl)cc1 [Preparation Example 355]
5.52 to 6.00 | CCCCc1nc(-c2ccc(F)cc2)[nH]c1-c1ccsc1 [Preparation Example 170]
5.52 to 6.00 | CCCc1nc(-c2ccccc2)[nH]c1-c1ccccc1 [Preparation Example 180]
5.52 to 6.00 | CCCc1nc(-c2ccc[nH]2)[nH]c1-c1ccccc1 [Preparation example 35]

pEC50 | Compound
≥ 6.30 | CCc1nc(-c2ccc(F)cc2)[nH]c1-c1cscn1 [Preparation example 52]
5.52 to 6.00 | O=C(O)Cc1nc(-c2ccc(Cl)cc2)oc1C1CCCC1 [Preparation Example 265]
≥ 6.30 | CCCc1nc(-c2ccsc2)[nH]c1-c1ccccc1 [Preparation example 33]
5.52 to 6.00 | COCc1nc(-c2ccc(F)cc2)[nH]c1-c1ccccc1 [Preparation example 121]
5.52 to 6.00 | CC(C)c1nc(-c2ccc(F)cc2)[nH]c1-c1ccsc1 [Preparation Example 169]
5.52 to 6.00 | CSCc1nc(-c2cccc(F)c2)[nH]c1-c1ccccc1 [Preparation example 131]
6.00 to 6.30 | CN(C)c1ccc(-c2nc(-c3cccs3)c(CC(=O)O)o2)cn1 [Preparation Example 506]
5.52 to 6.00 | CCCc1nc(-c2ccccn2)[nH]c1-c1cccs1 [Preparation example 5]
≥ 6.30 | CCc1nc(-c2ccc(F)cc2)[nH]c1-c1nccs1 [Preparation example 51]
6.00 to 6.30 | CCCc1nc(-c2ccc(F)cc2)[nH]c1-c1ccccn1 [Preparation example 97]
5.52 to 6.00 | CCOC(=O)C(N)c1nc(-c2ccc(F)cc2)oc1-c1ccc(Cl)s1 (stereo not shown) [Preparation Example 372, ethyl 2-amino-2-[5-(5-chlorothiophen-2-yl)-2-(4-fluorophenyl)-oxazol-4-yl]acetate]
≥ 6.30 | COc1ccc(-c2nc(-c3ccsc3)c(CC(=O)O)s2)cc1 [Preparation Example 597]
5.52 to 6.00 | CCCc1nc(-c2ccccc2[N+](=O)[O-])[nH]c1-c1ccccc1 [Preparation example 39]
5.52 to 6.00 | CCCc1nc(-c2cc3ccccc3o2)[nH]c1-c1ccccc1 [Preparation example 38]
5.52 to 6.00 | CCCc1nc(-c2ccc(F)cc2)[nH]c1-c1cccc(OC)c1 [Preparation example 96]
5.52 to 6.00 | Fc1ccc(-c2nc(CC(F)(F)F)c(-c3ccsc3)[nH]2)cc1 [Preparation Example 173]
≥ 6.30 | CCc1nc(-c2csc(Br)c2)[nH]c1-c1cccnc1 [Preparation example 19]

test system: rhythmic bladder contractions induced by substance P; assay: Inhibitory effect on the rhythmic bladder contractions induced by substance P in anesthetized rats; format: in vivo, rat; conditions: time during which frequency of rhythmic contraction was completely inhibited, 0.25 mg/kg of the compound, substance P infusion
Description: Inhibitory effect on the rhythmic bladder contractions induced by substance P in anesthetized rats
For the experiments, Sprague-Dawley female rats (9 to 12 weeks old) weighing between 200 to 300 g were used. After urethane anesthetization (subcutaneously administered with a dose of 1.2 g/kg), cannulae were placed in both right and left femoral veins. One intravenous catheter was used for administration of compounds, and the other was for the substance P (0.33 μg/kg/min) infusion. We also cannulated into ureter to pass urine. Polyethylene catheters were inserted into carotid artery for continuous monitoring of arterial blood pressure and heart rate. For continuous infusion, transurethral bladder catheter was inserted into the bladder through the urethra and tied in place by a ligature around the urethral orifice. One end of the catheter was attached to a pressure transducer in order to measure intravesical pressure. The other end of the catheter was used for infusion of saline into the bladder. After stabilization of blood pressure and heart rate and after the bladder was emptied, cystometry was performed by filling the bladder slowly with about 0.6 ml of saline. After about 10 minutes, intravenous infusion of substance P (0.33 μg/kg/min) was started for stabilization of the micturition reflex. Compounds were administered after stable rhythmic bladder contraction was obtained over 15 minutes. All compounds were dissolved or suspended in saline containing 0.5% Tween 80 for intravenous administration (0.1 ml/kg).
A 100% inhibition time (minute) of the selected compounds of the present invention is shown in the following Table 65 with a rank of A, B or C. These ranges are as mentioned below. A≧20>B≧10>C (minute)

Compound | 100% inhibition time range
O=C([O-])Cc1nc(-c2ccc(F)cc2)oc1-c1ccc(Cl)s1.[Na+] [Preparation Example 152, 5-(5-chloro-thiophen-2-yl)-2-(4-fluorophenyl)oxazol-4-yl acetic acid sodium salt] | B (A≧20>B≧10>C (minute))
CSc1ccc(-c2nc(CC(=O)[O-])c(-c3cccs3)o2)cn1.[Na+] [Preparation Example 366, 2-(6-methylthiopyridin-3-yl)-5-(2-thienyl)oxazol-4-yl acetic acid sodium salt] | C (A≧20>B≧10>C (minute))
CCCc1nc(-c2ccc(F)cc2)[nH]c1-c1ccc(N(C)C)cc1 [Preparation example 90] | B (A≧20>B≧10>C (minute))
COc1ccc(-c2nc(-c3ccc(Cl)cc3)c(CC(=O)O)s2)cc1 [Preparation Example 575] | B (A≧20>B≧10>C (minute))
CN(C)c1ccc(-c2nc(-c3ccc(Cl)s3)c(CC(=O)O)o2)cn1 [Preparation Example 504] | C (A≧20>B≧10>C (minute))
O=C(O)Cc1nc(-c2cc3c(s2)CCC3)oc1-c1ccc(Cl)s1 [Preparation Example 479] | C (A≧20>B≧10>C (minute))
O=C(O)Cc1nc(-c2ccccc2)oc1-c1ccc(Cl)s1 [Preparation Example 279] | C (A≧20>B≧10>C (minute))
O=C(O)Cc1nc(-c2cc3ncccc3s2)oc1-c1ccc(Cl)s1 [Preparation Example 470] | B (A≧20>B≧10>C (minute))
O=C(O)Cc1nc(-c2ccc(F)cc2)oc1-c1ccco1 [Preparation Example 270] | B (A≧20>B≧10>C (minute))
OCc1[nH]c(-c2csc(Cl)c2)nc1-c1cccnc1 [Preparation Example 482, 2-(5-chloro-thiophen-3-yl)-5-hydroxymethyl-4-(3-pyridyl)imidazole] | C (A≧20>B≧10>C (minute))
O=C(O)Cc1nc(-c2ccc(F)cc2)oc1-c1cc(Cl)ccc1O [Preparation Example 242] | C (A≧20>B≧10>C (minute))
COc1ccc(-c2nc(CC(=O)O)c(-c3ccc(Cl)s3)o2)cn1 [Preparation Example 368] | B (A≧20>B≧10>C (minute))
O=C(O)Cc1nc(-c2ccc3ccccc3n2)oc1-c1ccsc1 [Preparation Example 439] | C (A≧20>B≧10>C (minute))
CN(C)c1ncc(-c2nc(-c3cccs3)c(CC(=O)O)s2)cn1 [Preparation Example 580] | C (A≧20>B≧10>C (minute))
CCN(CC)c1ccc(-c2nc(CC(=O)O)c(-c3ccsc3)o2)cn1 [Preparation Example 530] | C (A≧20>B≧10>C (minute))
CCc1[nH]c(-c2sccc2CO)nc1-c1cccnc1.Cl.Cl [Preparation example 67, 5-ethyl-2-(3-hydroxymethylthiphen-2-yl)-4-(3-pyridyl)imidazole dihydrochloride] | B (A≧20>B≧10>C (minute))
CNc1[nH]c(-c2ccc(F)cc2)nc1-c1ccccc1 [Preparation example 107, 5-methylamino-2-(4-fluorophenyl)-4-phenylimidazole] | B (A≧20>B≧10>C (minute))
OCc1nc(-c2ccc(Cl)cc2)[nH]c1-c1ccccc1 [Preparation Example 176] | C (A≧20>B≧10>C (minute))
CCCc1nc(-c2ccc(C#N)cc2)[nH]c1-c1ccccc1 [Preparation example 31] | A (A≧20>B≧10>C (minute))
COc1ccc(-c2nc(-c3ccc(Cl)s3)c(CC(=O)O)s2)cc1 [Preparation Example 570] | A (A≧20>B≧10>C (minute))
